# How the values were obtained:
# bradykinin B2 receptor [1] = target: T1, bradykinin B2 receptor (Cavia porcellus, UniProt O70526); assay: Inhibition of [3H]-bradykinin binding to guinea-pig ileum membranes; conditions: test compound 10^-6 M, [3H]-bradykinin 120 pM, 90 min at 20° C.
# T1 construct: Ileum segments are isolated from male guinea-pigs; from tissue; host or cells: guinea-pig ileum (Dunkin-Hartley strain; animals from Iffa Credo)
# T1 sequence (O70526 1-372): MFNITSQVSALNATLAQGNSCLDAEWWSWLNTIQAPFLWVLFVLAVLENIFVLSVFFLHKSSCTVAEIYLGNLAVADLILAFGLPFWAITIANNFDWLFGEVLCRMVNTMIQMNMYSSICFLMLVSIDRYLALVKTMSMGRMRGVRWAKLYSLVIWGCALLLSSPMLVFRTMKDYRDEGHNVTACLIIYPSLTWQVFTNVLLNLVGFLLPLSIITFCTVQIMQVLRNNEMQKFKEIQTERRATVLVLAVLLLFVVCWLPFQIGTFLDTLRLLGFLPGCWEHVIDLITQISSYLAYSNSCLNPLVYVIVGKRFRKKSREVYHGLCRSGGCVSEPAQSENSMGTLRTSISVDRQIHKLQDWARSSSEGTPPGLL
# Experimental: The following pharmacological test is used: Ileum segments are isolated from male guinea-pigs [of the Dunkin-Hartley strain (Iffa Credo, l'Arbresle, France)] and ground in the following TES buffer: TES 25 mM, 1,10-phenanthroline 1 mM (pH 6.8), bacitracin 140 μg/ml, BSA 1 g/l. The membranes are then isolated by centrifugation (18,000 rpm; 20 min 4° C.). The binding studies are carried out in this TES buffer using [^3H]-bradykinin (120 pM) and 50 μg of membrane protein per test (final volume 500 μl) with an equilibrium time of 90 min at 20° C. The percentage inhibition of the binding of [^3H]-bradykinin is then determined in the presence of one of the test compounds according to the invention at a concentration of 10^−6 M.
# The results obtained from these tests (shown as “activity”) are collated in Table I below with reference to the Examples given in the description. In this Table, the meaning of the heterocyclic radicals Q is given in the notes and the nature of the salts is indicated by the abbreviations Chl in the case of a hydrochloric acid salt and Ms in the case of a methanesulfonic acid salt.
# bradykinin B2 receptor [2] = target: T1, bradykinin B2 receptor; assay: Antagonism of bradykinin-induced B2 receptor activation on guinea-pig ileum (pKB, Pruneau et al.); conditions: antagonism of bradykinin at B2 receptor
# From the text: The compounds according to the invention have an antagonistic effect towards the bradykinin B2 receptor (they inhibit the activation of the B2 receptors which is induced by bradykinin). […] The experimental results, evaluated by the pKB described in the above publication, are reported in the summary Table.
SMILES,Activity % (percentage inhibition of the binding of [3H]-bradykinin) (bradykinin B2 receptor [1]) [%],pKB (bradykinin B2 receptor [2])
"CS(=O)(=O)O.CS(=O)(=O)O.Cc1nc2c(OCc3c(Cl)ccc(S(=O)(=O)N4CCC[C@H]4C(=O)NCCCNC(=O)c4ccc(C(=N)N)cc4)c3Cl)cccn2c1Cl [Example 38, 1-[[3-[[3-Chloro-2-methylimidazo[1,2-a]pyridin-8-yl]oxymethyl]-2,4-dichlorophenyl]sulfonyl]-N-[3-[[4-(aminoimiomethyl)benzoyl]amino]propyl]-2(S)-pyrrolidinecarboxamide Bis(methanesulfonate)]",100,–
CS(=O)(=O)O.CS(=O)(=O)O.Cc1nc2c(OCc3c(Cl)ccc(S(=O)(=O)N4CCC[C@H]4C(=O)N4CCN(C(=O)c5ccc(C(=N)N)cc5)CC4)c3Cl)cccn2c1Cl [Example 41],100,–
"CC(=O)c1c(C)nc2c(OCc3c(Cl)ccc(S(=O)(=O)N4CCC[C@H]4C(=O)NCCCNC(=O)c4ccc(C(=N)N)cc4)c3Cl)cccn12.CS(=O)(=O)O.CS(=O)(=O)O [Example 44, 1-[[3-[[3-Acetyl-2-methylimidazo[1,2-a]pyridin-8-yl]oxymethyl]-2,4-dichlorophenyl]sulfonyl]-N-[3-[[4-(aminoiminomethyl)benzoyl]amino]propyl]-2(S)-pyrrolidinecarboxamide Bis(methanestilfonate)]",100,–
CS(=O)(=O)O.CS(=O)(=O)O.Cc1cc(=O)n2cccc(OCc3c(Cl)ccc(S(=O)(=O)N4CCC[C@H]4C(=O)N4CCN(C(=O)c5ccc(C(=N)N)cc5)CC4)c3Cl)c2n1 [Example 33],96,7.8
"CS(=O)(=O)O.CS(=O)(=O)O.Cc1cc(=O)n2cccc(OCc3c(Cl)ccc(S(=O)(=O)N4CCC[C@H]4C(=O)NCCCNC(=O)c4ccc(C(=N)N)cc4)c3Cl)c2n1 [Example 30, 1-[[3-[[2-Methyl-4H-pyrido[1,2-a]pyrimidin-9-yl-4-one]oxymethyl]-2,4-dichlorophenyl]sulfonyl]-N-[3-[[4-(aminoiminomethyl)benzoyl]amino]propyl]-2(S)-pyrrolidinecarboxamide Bis(methanesulfonate)]",99.3,7.9

# From patent publication US6384222B1, “N-benzenesulfonyl-L-proline compounds, preparation method and method for using the compounds in therapy” (Fournier Industrie et Sante, priority 1997, dated 2002)
